Source: article PMC11879040, “Advancing systemic toxicity risk assessment: Evaluation of a NAM-based toolbox approach” (Toxicological Sciences, 2024)
Structures can show the parent of a compound that is named as a salt. Where two headings read alike, the source gives them in different places.

Legend:
HepG2 cells [1] = assay: High-throughput transcriptomics (HTTr, TempO-Seq), HepG2, 24 h; type: cell-based, human
Procedure: (§1) HepG2, HepaRG, and MCF7 cells were treated with each compound for 24 h across a dose range of 7 concentrations and lysed using TempO-Seq lysis buffer (BioSpyder Technologies, proprietary kit, see [Middleton et al. 2022] for method details). Sequencing was performed using TempO-Seq (BioClavis) version 2 of the human whole transcriptome panel and analyzed as described previously in Middleton et al.

HepaRG cells = assay: High-throughput transcriptomics (HTTr, TempO-Seq), HepaRG, 24 h; type: cell-based, human
Procedure: as §1

MCF7 cells = assay: High-throughput transcriptomics (HTTr, TempO-Seq), MCF7, 24 h; type: cell-based, human
Procedure: as §1

[2] = tested on: 63 targets with known safety liabilities; assay: In vitro pharmacological profiling (IPP) panel, screening at 10 or 100 µM and dose response, minimum IC50/AC50; type: biochemical; conditions: lowest AC50 across IPP panel (systemic targets); cell_type -; read-out: ipp_lowest_ac50_systemic PoD
[3] = tested on: Thyroid hormone receptor alpha, THRA (h); assay: IPP THRA coactivator recruitment (agonist); type: biochemical, human; conditions: agonist, T3
Tubulin (r) = assay: IPP Tubulin binding; parameters: species or system rat; conditions: ligand/control Colchicine
HepG2 cells [4] = assay: Cell stress panel (CSP), 24 h, 8 concentrations, BIFROST global PoD; type: cell-based; conditions: HepG2; cell stress panel PoD
Procedure: Compounds were tested using the previously developed cell stress panel ([Hatherell et al. 2020]) and the expanded biomarker panel outlined in Middleton et al. HepG2 cells were treated with all compounds for 24 h across 8 concentrations prior to biomarker analysis. The same plate layout and number of replicates (3 biological and 2 technical) were used as previously for each assay within the panel.

[5] = tested on: Glutamate receptor ionotropic NMDA 1 non-selective, GRIN1 (r)
[6] = human
[7] = tested on: Potassium Voltage-Gated Channel Kv non-selective, KCNQ1 (r); assay: IPP KCNQ1 binding (antagonist radioligand); parameters: species or system rat; conditions: IPP screening at 100 uM; control α-dendrotoxin
[8] = tested on: Gamma-aminobutyric acid receptor subunit alpha-1 BZD site, GABRA1A (r); type: binding, rat; conditions: IPP screening at 100 uM; control diazepam
[9] = tested on: Sodium channel protein type 5 subunit alpha (site 2), SCN5A (r); type: binding, rat; conditions: IPP screening at 100 uM; control veratridine
[10] = molecular target: T1, Adenosine receptor A2a, ADORA2A (h) (Homo sapiens, UniProt P29274); assay: IPP ADORA2A binding (agonist radioligand); conditions: IPP screening at 100 uM; control NECA
T1 construct: purchased Eurofins Cerep (SafetyScreen44-based IPP panel)

[11] = Assignment of risk classifications to benchmark chemical-exposure scenarios; conditions: Dermal; […]; Body lotion; Exp1; from table S1
[12] = molecular target: T2, Estrogen receptor, ER1 (h) (Homo sapiens, UniProt P03372); assay: IPP ER1 coactivator recruitment (agonist); type: biochemical; conditions: 100 uM, estriol, * denotes assay interference (2-Amino-6-chloro-4-nitrophenol, HC Red 3)
T2 construct: purchased Eurofins Cerep (SafetyScreen44-based IPP panel)
T2 sequence (P03372 1-595): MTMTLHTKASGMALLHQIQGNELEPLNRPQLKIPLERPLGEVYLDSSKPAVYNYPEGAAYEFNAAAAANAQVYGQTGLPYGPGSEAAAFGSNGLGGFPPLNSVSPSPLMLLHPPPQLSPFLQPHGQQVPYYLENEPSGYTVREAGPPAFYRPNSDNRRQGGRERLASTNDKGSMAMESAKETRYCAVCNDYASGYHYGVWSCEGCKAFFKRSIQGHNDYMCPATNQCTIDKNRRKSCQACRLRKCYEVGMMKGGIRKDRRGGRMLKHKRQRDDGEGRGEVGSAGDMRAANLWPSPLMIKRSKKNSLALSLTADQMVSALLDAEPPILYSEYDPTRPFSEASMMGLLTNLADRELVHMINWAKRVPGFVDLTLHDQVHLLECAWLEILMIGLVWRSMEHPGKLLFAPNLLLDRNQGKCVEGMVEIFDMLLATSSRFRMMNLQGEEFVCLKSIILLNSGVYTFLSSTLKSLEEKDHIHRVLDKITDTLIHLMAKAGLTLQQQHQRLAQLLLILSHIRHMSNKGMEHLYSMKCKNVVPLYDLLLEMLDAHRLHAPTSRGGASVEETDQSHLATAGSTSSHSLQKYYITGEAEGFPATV

[13] = molecular target: T2, Estrogen receptor, ER1 (h); assay: IPP ER1 coactivator recruitment (antagonist); type: biochemical; conditions: 100 uM, estriol, * denotes assay interference (2-Amino-6-chloro-4-nitrophenol, HC Red 3)
[14] = molecular target: Potassium voltage-gated channel subfamily H member 2 hERG, KCNH2 (h) (Homo sapiens, UniProt Q12809); conditions: human, 100 µM
rat = conditions: cited from earlier work
[15] = HepG2, HTTr minimum pathway BMD(L)
[16] = HepaRG, HTTr minimum pathway BMD(L)
[17] = MCF-7, HTTr minimum pathway BMD(L)
[18] = 100 uM, * denotes assay interference (2-Amino-6-chloro-4-nitrophenol, HC Red 3)
[19] = IPP screening at 100 uM, control CGS 19755

T1 sequence (P29274 whole entry): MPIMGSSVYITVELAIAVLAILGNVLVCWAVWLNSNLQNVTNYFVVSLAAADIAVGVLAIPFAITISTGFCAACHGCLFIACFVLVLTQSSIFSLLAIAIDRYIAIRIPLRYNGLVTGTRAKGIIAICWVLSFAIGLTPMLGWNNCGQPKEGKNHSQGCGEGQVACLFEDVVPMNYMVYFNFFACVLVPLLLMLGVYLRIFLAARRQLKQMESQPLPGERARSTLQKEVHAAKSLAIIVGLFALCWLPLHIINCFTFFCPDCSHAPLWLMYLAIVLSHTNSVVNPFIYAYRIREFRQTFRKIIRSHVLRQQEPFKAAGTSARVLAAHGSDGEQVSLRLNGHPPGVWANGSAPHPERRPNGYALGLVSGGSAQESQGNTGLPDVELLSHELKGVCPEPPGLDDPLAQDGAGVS
Chain of Potassium voltage-gated channel subfamily H member 2 hERG, KCNH2 (h) (Q12809 whole entry): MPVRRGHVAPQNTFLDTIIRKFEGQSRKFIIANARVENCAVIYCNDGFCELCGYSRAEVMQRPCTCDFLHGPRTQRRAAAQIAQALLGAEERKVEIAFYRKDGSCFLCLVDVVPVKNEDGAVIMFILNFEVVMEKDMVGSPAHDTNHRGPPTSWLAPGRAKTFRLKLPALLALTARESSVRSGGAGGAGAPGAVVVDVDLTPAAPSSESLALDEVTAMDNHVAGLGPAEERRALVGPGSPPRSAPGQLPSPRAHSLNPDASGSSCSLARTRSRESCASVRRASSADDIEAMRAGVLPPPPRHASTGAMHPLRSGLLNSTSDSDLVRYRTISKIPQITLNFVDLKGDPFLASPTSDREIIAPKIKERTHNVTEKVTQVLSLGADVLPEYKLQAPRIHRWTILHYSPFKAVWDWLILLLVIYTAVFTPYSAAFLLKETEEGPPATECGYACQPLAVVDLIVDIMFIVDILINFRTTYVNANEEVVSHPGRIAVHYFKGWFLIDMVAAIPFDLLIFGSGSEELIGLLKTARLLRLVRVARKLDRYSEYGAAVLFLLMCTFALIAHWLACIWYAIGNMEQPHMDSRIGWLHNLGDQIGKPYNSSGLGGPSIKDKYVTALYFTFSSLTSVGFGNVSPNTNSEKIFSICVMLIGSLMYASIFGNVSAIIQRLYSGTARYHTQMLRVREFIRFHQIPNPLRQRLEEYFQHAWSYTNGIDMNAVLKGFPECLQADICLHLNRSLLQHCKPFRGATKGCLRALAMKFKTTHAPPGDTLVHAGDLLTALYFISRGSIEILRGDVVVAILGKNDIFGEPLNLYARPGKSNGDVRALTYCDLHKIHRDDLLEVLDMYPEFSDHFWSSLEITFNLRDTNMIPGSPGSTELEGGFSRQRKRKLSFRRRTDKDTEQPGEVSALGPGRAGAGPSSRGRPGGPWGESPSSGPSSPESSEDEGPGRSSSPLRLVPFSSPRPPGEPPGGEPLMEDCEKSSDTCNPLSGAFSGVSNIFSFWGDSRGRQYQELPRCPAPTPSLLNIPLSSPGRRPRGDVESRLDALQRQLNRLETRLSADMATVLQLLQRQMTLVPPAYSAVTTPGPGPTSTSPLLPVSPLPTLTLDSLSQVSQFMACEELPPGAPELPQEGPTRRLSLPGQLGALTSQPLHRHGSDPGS

| SMILES | pod_httr_bifrost PoD (HepG2 cells [1]; HepG2, HTTr BIFROST PoD) [µM] | podl_path_minbmd PoD (HepG2 cells [1]; [15]) [µM] | pod_httr_bifrost PoD (HepaRG cells; HepaRG, HTTr BIFROST PoD) [µM] | podl_path_minbmd PoD (HepaRG cells; [16]) [µM] | pod_httr_bifrost PoD (MCF7 cells; MCF-7, HTTr BIFROST PoD) [µM] | podl_path_minbmd PoD (MCF7 cells; [17]) [µM] | AC50 [2] [nM] | pod_cell_stress PoD (HepG2 cells [4]) [µM] | other results |
| --- | --- | --- | --- | --- | --- | --- | --- | --- | --- |
| CCCCOC(=O)c1ccc(O)cc1 [Butyl_4-hydroxybenzoate] | 10.9882 | 46.8548 | 66.4882 | 120 | 0.02978 | 0.1304 | 6580 |  |  |
| COc1ccc(O)c(C(C)(C)C)c1 [Butylated_Hydroxyanisole] | 9.643 | 21.4191 | 6.323 | 13.7136 | 8.844 | 25.2807 | 600 |  |  |
| O=C(O)COCCN1CCN(C(c2ccccc2)c2ccc(Cl)cc2)CC1 (centres unmarked) [Cetirizine dihydrochloride, (2-{4-[(4-Chlorophenyl)(phenyl)methyl]piperazin-1-yl}ethoxy)acetic acid--hydrogen chloride (1/2)] |  |  |  |  |  |  |  | 67.3241 | IPP screening %, Coactivator recruitment ([3]; 10 uM): 2.0%; IPP screening %, Specific binding (Tubulin (r); 10 uM): 14.0%; Specific binding [5]: 1.4%; risk [6]: 1 |
| O=C(O)COCCN1CCN(C(c2ccccc2)c2ccc(Cl)cc2)CC1 (centres unmarked) [Cetirizine_dihydrochloride] | 9.8579 | 120 | 0.6956 | 13.467 | 3.21 | 78.4644 | 81 |  |  |
| O=CCCCC=O [Glutaraldehyde Solution] |  |  |  |  |  |  |  | 37.601 |  |
| O=CCCCC=O [Glutaraldehyde_Solution] | 19.467 | 50 | 136.152 | 500 | 0.2467 | 50 |  |  |  |
| Nc1ccc(NCCO)c([N+](=O)[O-])c1 [HC_Red_3] | 0.3766 | 1.617 | 0.1851 | 0.9652 | 0.8099 | 25.6755 | 2170 |  |  |
| NNc1nncc2ccccc12 [Hydralazine_hydrochloride] | 1.708 | 20.4222 | 1.593 | 111.897 | 0.3784 | 100.098 | 1200 |  |  |
| CCN(CC)CCNC(=O)c1cc(Cl)c(N)cc1OC [Metclopramide] | 16.0473 | 79.9772 | 30.9764 | 92.5373 | 18.3439 | 87.28 | 46 | 73.2603 |  |
| CN(C)[C@@H]1C(O)=C(C(N)=O)C(=O)[C@@]2(O)C(O)=C3C(=O)c4c(O)cccc4[C@@](C)(O)[C@H]3[C@H](O)[C@@H]12 [Oxytetracycline_hydrochloride] | 1.6523 | 24.772 | 4.2 | 50.4384 | 0.6783 | 10.8661 |  | 2.447 |  |
| CC(C)(CO)C(O)C(=O)NCCCO (centres unmarked) [Panthenol, 2,4-Dihydroxy-N-(3-hydroxypropyl)-3,3-dimethylbutanamide] | 7221.82 | 20000 | 65.9596 | 4552.59 | 767.225 | 20000 |  | 18298.9 | Specific binding [7]: -4.3%; Specific binding [8]: -1.9%; Specific binding [9]: 27.9%; Specific binding [10]: 7.3%; IPP screening %, Coactivator recruitment [3, 18]: 2.0%; IPP screening %, Specific binding (Tubulin (r); 100 uM): -5%; HepaRG HTTr: concentration of single responding probe (HepaRG cells; BIFROST probe-level PoD): < 100 µM; HepaRG HTTr: next lowest probe (HepaRG cells; BIFROST probe-level PoD): 5100 µM; Specific binding [5, 19]: 0.2%; risk [11]: 0 |
| O=S(=O)([O-])NC1CCCCC1.[Na+] [Sodium_Cyclamate] |  |  |  |  |  |  |  |  | pod_httr_bifrost PoD (HepG2 cells [1]): 12.9839 µM; podl_path_minbmd PoD (HepG2 cells [1]): 1200 µM; pod_httr_bifrost PoD (HepaRG cells): 485.622 µM; podl_path_minbmd PoD (HepaRG cells): 442.002 µM; pod_httr_bifrost PoD (MCF7 cells): 202.953 µM; podl_path_minbmd PoD (MCF7 cells): 1200 µM |
| O=C(O)c1ccc2c(c1)C(=O)OC2=O [Trimellitic anhydride, 1,3-Dioxo-1,3-dihydro-2-benzofuran-5-carboxylic acid] |  |  |  |  |  |  |  |  | Specific binding [7]: -6.6%; Specific binding [8]: 12.5%; Specific binding [9]: 30.3%; Specific binding [10]: 6.5%; IPP screening %, Coactivator recruitment [12]: 1.0%; IPP screening %, Coactivator recruitment [13]: -1.0%; IPP screening %, Coactivator recruitment [3, 18]: 1.0%; IPP screening %, Specific binding (Tubulin (r); 100 uM): 2%; Specific binding [5, 19]: 9.9%; IPP screening %, Specific binding [14]: -16.7%; PoD (NOEL) (rat; rat, repeat dose, ref ECHA dossier): 300 mg/kg bw/day; NOAEL, dietary intake (rat; repeat dose, before adjustment, ref ECHA dossier): Adjusted from NOAEL of 10000ppm dietary intake - ECHA dossier. Other studies referenced are for trimellitic acid. |
| O=C(O)c1ccc2c(c1)C(=O)OC2=O [Trimellitic_anhydride] | 404.103 | 1078.54 | 236.503 | 100.049 | 423.806 | 854.401 |  | 34.7606 |  |
| COc1ccc(CCN(C)CCCC(C#N)(c2ccc(OC)c(OC)c2)C(C)C)cc1OC (centres unmarked) [Verapamil_hydrochloride] | 1.132 | 8.538 | 1.688 | 24.0605 | 0.3576 | 10.6709 | 17 |  |  |
| NC1CCCCC1 [cyclohexylamine] |  |  |  |  |  |  |  |  | NOAEL (rat; 90 day rat study, cyclohexylamine administered, ref [19-22]): 100 mg/kg bw/day; dose at which testicular toxicity was observed (rat; testicular atrophy and giant cell formation, ref [19-22]): ≥ 200 mg/kg bw/day |
